Publication PMC8453848, “Effect of GLPG1205, a GPR84 Modulator, on CYP2C9, CYP2C19, and CYP1A2 Enzymes: In Vitro and Phase 1 Studies” (Clinical Pharmacology in Drug Development, 2021)
Where “and” joins values, the source holds several entries; their conditions need not be identical. Identical values can stand only once. Like-named read-outs stand apart in the source and are kept apart here.

Experiments:
CYP3A4 = system: CYP3A4; parameters: method as in PMID 33960725, PMID 29780235; settings: cortisol:6β‐hydroxycortisol ratio in urine; cited from earlier work
[1] = cited from earlier work
CYP2C9 = CYP2C9 (Homo sapiens, UniProt P11712); assay: CYP2C9 inhibition, tolbutamide methylhydroxylase assay in human liver microsomes; format: in vitro ADME; parameters: from tissue; host or cells: in vivo, 14 healthy male subjects; settings: for IC50: estimated
CYP2C9, sequence (P11712 whole entry): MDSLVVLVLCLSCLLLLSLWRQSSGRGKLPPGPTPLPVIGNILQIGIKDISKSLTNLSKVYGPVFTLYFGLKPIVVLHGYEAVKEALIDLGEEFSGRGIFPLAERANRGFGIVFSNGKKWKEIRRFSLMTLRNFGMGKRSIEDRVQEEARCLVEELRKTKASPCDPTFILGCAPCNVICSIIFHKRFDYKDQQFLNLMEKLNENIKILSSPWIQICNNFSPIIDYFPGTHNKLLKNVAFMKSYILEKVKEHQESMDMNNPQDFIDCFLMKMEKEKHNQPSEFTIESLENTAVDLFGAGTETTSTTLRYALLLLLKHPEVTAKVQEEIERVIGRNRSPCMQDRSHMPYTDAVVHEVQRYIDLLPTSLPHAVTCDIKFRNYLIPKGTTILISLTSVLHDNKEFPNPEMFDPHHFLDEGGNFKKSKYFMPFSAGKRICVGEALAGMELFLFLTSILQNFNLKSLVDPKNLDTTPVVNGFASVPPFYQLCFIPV
Method: Inhibition of the biotransformation of CYP‐specific substrates by GLPG1205 was studied using human liver microsomes. Incubation was performed at 37°C with the following conditions: n = 3 for all assays; 0.1 M phosphate buffer (pH 7.4), the cofactor nicotinamide adenine dinucleotide phosphate (NADPH) incubated at 2 mM, the CYP‐specific substrate incubated at 1 nonsaturating concentration, and GLPG1205. Additional incubation was performed with (1) a 30‐minute preincubation step of GLPG1205 with microsomes before the addition of the cofactor NADPH and CYP substrate; and (2) a 30‐minute preincubation step of GLPG1205 with microsomes and the cofactor NADPH, before the addition of the CYP substrate. […] The CYP‐specific substrates were incubated per the above conditions at the following concentrations: tolbutamide, 200 μM, CYP2C9 substrate; S‐mephenytoin, 60 μM, CYP2C19 substrate; phenacetin, 40 μM, CYP1A2 substrate.
Further details of the assays used for each CYP substrate are reported in the Supplemental Methods. Metabolites of the CYP‐specific substrates (acetaminophen for CYP1A2, hydroxytolbutamide for CYP2C9, hydroxymephenytoin for CYP2C19) were quantified using LC‐MS/MS.
Enzymatic activity in the presence of GLPG1205 was expressed as a percentage of the control activity obtained with the vehicle only (ie, without GLPG1205 or reference inhibitor). Decreases in activity of less than 20% were not considered clinically relevant.
Protocol for CYP Inhibition of the biotransformation of CYP-specific substrates by GLPG1205 was studied using human liver microsomes.^7 Incubations were performed at 37°C with the following conditions: n = 3 for all assays; 0.1 M phosphate buffer pH 7.4; the cofactor β-nicotinamide adenine dinucleotide phosphate (NADPH) incubated at 2 mM; the CYP-specific substrate incubated at one non-saturating concentration; and GLPG1205. Additional incubations were performed with: 1) a 30-minute preincubation step of GLPG1205 with microsomes before addition of the cofactor NADPH and CYP substrate; and 2) a 30-minute preincubation step of GLPG1205 with microsomes and the cofactor NADPH, before addition of the CYP substrate.
The CYP-specific substrates were incubated at the following conditions: tolbutamide (200 µM; CYP2C9); S-mephenytoin (60 µM; CYP2C19); phenacetin (40 µM; CYP1A2).^8-10 Reference inhibitors (as detailed in the previous section) were incubated in parallel. […]
A 2-fold dilution in D9-OH-tolbutamide at 1 µM in water with 0.1% formic acid was applied to the supernatants and then analysis was performed by LC-MS/MS with chromatographic separation. […] The quantification of the metabolite, hydroxytolbutamide, was performed in MRM mode using the 287.1 to 89.2 transition. […]

[2] = Phase 1 drug-drug interaction study: safety and tolerability (adverse events)
From the text: The safety assessment was based on adverse events (AEs), vital signs, 12‐lead electrocardiogram (ECG), physical examinations, and safety laboratory tests. AEs were monitored for the duration of the study. All safety assessments were undertaken at the screening visit, on days 13 and 14, and at the follow‐up visit. In addition, safety assessments were undertaken on day 1 (vital signs, 12‐lead ECG, and clinical laboratory tests) and day 7 (physical examination, vital signs, and clinical laboratory tests).
The safety population comprised all randomized subjects who received at least 1 dose of study drug.

[3] = once‐daily oral dosing for 14 days
[4] = GLPG1205 100 mg once a day + CYP450 substrates, n = 14
[5] = GLPG1205 100 mg once a day alone, n = 14

In the case of `O=c1nc(OC[C@@H]2COCCO2)cc2n1CCc1cc(C#CC3CC3)ccc1-2` [GLPG1205, 9‐cyclopropylethynyl‐2‐[(S)‐1‐(1,4)dioxan‐2‐ylmethoxy]‐6,7‐dihydropyrimido[6,1‐a]isoquinolin‐4‐one], the CYP3A4 induction (CYP3A4) is listed as “did not induce CYP3A4”, the “median time to maximum plasma concentration (tmax)” value ([1]; healthy male subjects) is listed as 4 h and the maximum tolerated dose ([1]; healthy subjects) is listed as 100 mg once a day. For the same compound, the Cmax ([1]; multiple doses of GLPG1205 100 mg once a day, steady state) was 3910 ng/mL, the “day by which steady‐state plasma concentration was reached” value [1, 3] was no more than 10 days and the “elimination half‐life, average” value [1, 3] was 88.6 h. For the same compound, the “inhibition of CYP2C9 in words” value (CYP2C9; GLPG1205 50‐100 μM) was “moderate and reversible”, the IC50 (CYP2C9; human liver microsomes, read-out: IC50 for inhibition of CYP2C9) was ~50 µM and ≥ 50 µM and the IC50 (CYP2C9; equivalent of ≥50 μM, read-out: IC50 for inhibition of CYP2C9, equivalent) was no less than 49.9 µM. The inhibition at 20 min (CYP2C9; human, liver microsomes, pH 7.4, probe tolbutamide 200 µM, GLPG1205 50‐100 μM without preincubation, tolbutamide 200 μM) was 49 to 56.9%, the “Any TEAE” value [2, 4] was 3 (21.4) n (%) and the Gastrointestinal disorders [2, 4] was 0 n (%). The “General disorders and general administration‐site conditions” value [2, 4] was 0 n (%), the Headache [2, 4] was 1 (7.1) n (%) and the “Influenza‐like illness” value [2, 4] was 0 n (%). For the same compound, the “Musculoskeletal and connective tissue disorders” value [2, 4] was 1 (7.1) n (%), the Myalgia [2, 4] was 1 (7.1) n (%) and the Nausea [2, 4] was 0 n (%). For the same compound, the Nervous system disorders [2, 4] was 1 (7.1) n (%), the Oropharyngeal pain [2, 4] was 1 (7.1) n (%) and the Pain [2, 4] was 0 n (%). The “Respiratory, thoracic, and mediastinal disorders” value [2, 4] was 1 (7.1) n (%), the “Any TEAE” value [2, 5] was 9 (64.3) n (%) and the Back pain [2, 5] was 0 n (%). The Disturbance in attention [2, 5] was 2 (14.3) n (%), the Eye disorders [2, 5] was 1 (7.1) n (%) and the Fatigue [2, 5] was 1 (7.1) n (%). The Flatulence [2, 5] was 1 (7.1) n (%), the Flushing [2, 5] was 1 (7.1) n (%) and the Gastroenteritis [2, 5] was 1 (7.1) n (%). For the same compound, the Gastrointestinal disorders [2, 5] was 1 (7.1) n (%), the “General disorders and general administration‐site conditions” value [2, 5] was 1 (7.1) n (%) and the Headache [2, 5] was 5 (35.7) n (%). For the same compound, the Hyperhidrosis [2, 5] was 0 n (%), the Infections and infestations [2, 5] was 1 (7.1) n (%) and the Lacrimation increased [2, 5] was 1 (7.1) n (%). For the same compound, the “Musculoskeletal and connective tissue disorders” value [2, 5] was 1 (7.1) n (%), the Myalgia [2, 5] was 1 (7.1) n (%) and the Nasopharyngitis [2, 5] was 0 n (%). For the same compound, the Nervous system disorders [2, 5] was 8 (57.1) n (%), the Oropharyngeal pain [2, 5] was 1 (7.1) n (%) and the Paresthesia [2, 5] was 1 (7.1) n (%). For the same compound, the Presyncope [2, 5] was 1 (7.1) n (%), the Rash [2, 5] was 0 n (%) and the “Respiratory, thoracic, and mediastinal disorders” value [2, 5] was 1 (7.1) n (%). The “Skin and subcutaneous tissue disorders” value [2, 5] was 0 n (%), the Vascular disorders [2, 5] was 1 (7.1) n (%) and the Vision blurred [2, 5] was 0 n (%). The “moderate presyncope, subjects” value ([2]; GLPG1205 alone) was 1 n, the “moderate oropharyngeal pain, subjects” value ([2]; GLPG1205 plus CYP450 substrates) was 1 n and the “deaths or serious AEs” value ([2]; during the study) was “no deaths or serious AEs”. For the same compound, the “laboratory safety tests, ECG, vital signs, physical examination” value ([2]; during the study) was “No clinically significant trends or abnormalities”.
